The values that follow are results of earlier work, collected in patent publication US20070105848A1 (priority 2005, published 2007).

Series [1] deals with Plasmodium falciparum glutathione reductase (Plasmodium falciparum, UniProt O15770).
A further series concerns adult humans. Conditions: one week to 19 months, 100 mg b.i.d. or t.i.d. orally or 100 mg i.v.
For a further series, the system named is methemoglobinemia. Conditions: i.v., 1 mg/kg body weight.

Plasmodium falciparum glutathione reductase, sequence (O15770 47-546): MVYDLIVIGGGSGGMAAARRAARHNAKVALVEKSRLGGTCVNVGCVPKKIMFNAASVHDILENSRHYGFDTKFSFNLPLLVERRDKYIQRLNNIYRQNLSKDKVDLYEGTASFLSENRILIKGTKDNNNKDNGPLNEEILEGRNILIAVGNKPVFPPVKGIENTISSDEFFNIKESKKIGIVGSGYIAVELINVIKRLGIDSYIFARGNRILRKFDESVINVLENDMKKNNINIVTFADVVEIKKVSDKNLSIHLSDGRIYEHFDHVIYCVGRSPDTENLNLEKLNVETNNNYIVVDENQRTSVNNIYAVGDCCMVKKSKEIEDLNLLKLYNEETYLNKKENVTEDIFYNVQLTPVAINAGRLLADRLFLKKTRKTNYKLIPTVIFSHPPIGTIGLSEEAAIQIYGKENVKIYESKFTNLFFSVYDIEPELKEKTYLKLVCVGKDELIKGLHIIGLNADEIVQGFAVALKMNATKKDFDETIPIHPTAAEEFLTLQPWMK

As for `CN(C)c1ccc2nc3ccc(N(C)C)cc3[s+]c2c1.[Cl-]` [Methylene blue, 3,7-bis(dimethylamino)-phenothiazin-5-ium chloride], the “inhibition of Plasmodium falciparum glutathione reductase” value in series [1] is “selective inhibitor”. The “side effects on prolonged administration” value with adult humans is given as “minimal side effects”. Besides, in the series on malaria, the antimalarial activity entry was “intrinsic antimalarial activity” and the chloroquine sensitization entry was “can act as a chloroquine sensitizer”. For the same compound, in the series with methemoglobinemia, the treatment of methemoglobinemia entry is listed as “effective”.
